The experiment addresses T1, LmrR (Lactococcus cremoris, UniProt A2RI36).
T1 construct: gene llmg_0323; LmrR homodimer; untagged protein for the crystal (residues 1–5, 70–75 and 109–116 not modelled)
T1 sequence (A2RI36 1-116): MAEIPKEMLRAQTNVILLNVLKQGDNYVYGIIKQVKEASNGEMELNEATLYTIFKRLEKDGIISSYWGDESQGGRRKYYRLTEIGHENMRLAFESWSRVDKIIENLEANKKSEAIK
As to the kind of experiment: co-crystal structure ([…] Å) and riboflavin fluorescence quenching titration. In kind it is binding.

Take `Cc1cc2nc3c(=O)[nH]c(=O)nc-3n(C[C@H](O)[C@H](O)[C@H](O)CO)c2cc1C` [RBF, riboflavin]: binding was put at a Kd of 260 ± 80 nM.

One may read the Kd as a measure of binding affinity in units of concentration. A higher Kd goes with weaker binding.

The record behind these values is PMC4534193, “Binding of the Lactococcal Drug Dependent Transcriptional Regulator LmrR to Its Ligands and Responsive Promoter Regions” (PLoS ONE, 2015).
